Results taken from patent US11931465B2, “Functionalized Prussian blue nanoparticles, combination Prussian blue nanoparticle-based nano-immunotherapy and applications thereof” (Children's National Medical Center, priority 2016, dated 2024).
Entries after “also recorded” stand apart in the source; their conditions may differ.

Legend:
ERK activation (p-ERK) = assay: Western blot for p-ERK in M2 cells; type: cell-based, mouse
Procedure: Western blots. Treated M2 cells were lysed in 1×RIPA buffer [50 mM Tris-HCL (pH 7.4), 150 mM NaCl, 1% Triton X-100, 1% sodium deoxycholate, 0.1% SDS, 1 mM EDTA, complete protease inhibitor (Roche, Basel, Switzerland) and phosphatase inhibitor (Roche, Basel, Switzerland)]. Samples were analyzed by SDS-PAGE and transferred onto PVDF membranes (Millipore, Billerica, MA). The blots were then blocked in 5% non-fat milk in TBST, followed by incubation of primary antibodies at 4° C. overnight. After washing, the blots were incubated in horseradish peroxidase (HRP)-conjugated secondary antibodies at room temperature for 1 hour. Signals were detected using ECL or ECL plus (GE healthcare, Little Chalfont, United Kingdom) followed by film development. The primary antibodies used are as follows: p-ERK (1:1,000, rabbit, Cell Signaling, Danvers, MA), ERK (1:2,000, rabbit, Cell Signaling, Danvers, MA), and β-actin (1:10,000, mouse, Sigma-Aldrich, St. Louis, MO).

M2 mouse MPNST cells [1] = assay: CellTiter-Glo cell viability assay; type: cell-based; details: 48 h, 48 h treatment
Procedure: Cell viability assays. M2 cells were seeded at 50,000 cells per well in 96-well cell culture plates overnight. After treatment, the cells were analyzed for viability using the ATP-based CellTiter-Glo Luminescent Cell Viability Assay (Promega, Madison, WI).

M2 mouse MPNST cells [2] = assay: Flow cytometry for apoptosis/necrosis and cell cycle; type: cell-based; details: 0.1, 1 and 10 μM, 24 h
Procedure: Flow cytometry. After the relevant treatments, M2 cells were stained with PE-Annexin V (BD Pharmingen, Franklin Lakes, NJ) and 7AAD (BD Pharmingen, Franklin Lakes, NJ). For cell cycle analysis, M2 cells were stained with propidium iodide (ThermoFisher Scientific, Carlsbad, CA) after treatment. Flow cytometry was performed on a BD FACSCalibur and analyzed with the FlowJo 7.6 software.

M2 MPNST tumors = assay: Syngeneic subcutaneous mouse model of MPNST; type: in vivo; details: PD901 5 mg/kg daily oral; PTT 50 μL 1 mg/mL PBNPs intratumoral, 1.5 W/cm^2 10 minutes, once
Procedure: In vivo studies. 1 million M2 cells were injected into the backs of B6129SF1/J mice in 100 μL 50% phosphate buffered saline (PBS, Life Technologies, Carlsbad, CA)/50% Matrigel (Corning, Corning, NY). Treatment commenced when tumors reached 10 mm in diameter. Animals were treated in four groups: (1) Untreated (n=5): animals received no treatment, (2) PTT-treated (n=5): animals were intratumorally injected with 50 μL of 1 mg/mL PBNPs and irradiated for 10 minutes with 1.5 W/cm^2 NIR laser, (3) PD901-treated (n=5): animals were given 5 mg/kg PD901 daily by oral gavage in 0.5% hydroxypropyl methylcellulose and 0.2% Tween80, and (4) PD901 plus PTT combo-treated (n=5): animals were given both PTT and PD901 treatments as listed above. […] Tumors were measured daily by calipers. For histological analysis of the effects of the treatments, tumors were harvested eight hours post treatment (treatments described above; n=2-3 per group), processed, and stained with hematoxylin and eosin (H&E) for subsequent microscopy.

**Q.** With O=C(NOC[C@H](O)CO)c1ccc(F)c(F)c1Nc1ccc(I)cc1F [PD901, PD-0325901] as the compound, how does the “p-ERK expression / ERK activation” value (ERK activation (p-ERK); 1 μM, 4 h or 8 h, versus vehicle) read?
**A.** Its value is “effectively blocked; also recorded: markedly decreased”.

**Q.** What about the p-ERK expression (ERK activation (p-ERK); 4 h, HIGH doses: 1.0 μM PD901, 0.05 mg/mL PBNP + 1.5 W/cm^2 laser 10 minutes) of the same compound?
**A.** Its p-ERK expression is “complete eradication”.

**Q.** What about the IC50 (M2 mouse MPNST cells [1]) of the same compound?
**A.** The IC50 was ~1000 nM.

**Q.** And the “mechanism of cell death” value (M2 mouse MPNST cells [2])?
**A.** Its value is “both apoptosis (Annexin V+7AAD−) and late apoptosis/necrosis (7AAD+)”.

**Q.** And the cell cycle effect (M2 mouse MPNST cells [2]; concentration-dependent)?
**A.** Its cell cycle effect is “significant arrest of M2 cells in the G0/G1 phase”.

**Q.** What about the median survival (M2 MPNST tumors) of the same compound?
**A.** The median survival was 18 days.
